{
  "source": "patent US12116592B2",
  "about": "“Methods and compositions for ex vivo expansion of very small embryonic-like stem cells (VSELs)” (University of Louisville Research Foundation, Inc., priority 2016, dated 2024)",
  "key": {"[1]": {"test_system": "Human UCB-derived VSELs (CD133^+/lin^−/CD45^− cells)", "test": "Ex vivo expansion of human UCB-derived VSELs", "format": "cell-based", "details": "VPA (1 mM), LH (10 U/ml), FSH (10 U/ml), TGFβ (10 ng/ml) in D-MEM, 10% FBS; at 2 months", "experimental": "Human UCB-derived VSELs were isolated by multi-parameter sorting using a MOFLOW™ XDP sorter (Beckman Coulter, Inc.). Small CD133^+/lin^−/CD45^− cells were plated in 96 well plates in D-MEM medium supplemented with 10% FBS in the presence of VPA (1 mM), LH (10 U/ml), FSH (10 U/ml) and transforming growth factor beta (TGFβ; 10 ng/ml). Cells were cultured for two (2) months in a humidified incubator at 37° C., 5% CO2. Fresh medium was added every 7 days."}, "[2]": {"test_system": "Sca-1^+/lin^−/CD45^− murine bone marrow VSELs", "test": "Ex vivo expansion of murine VSELs", "format": "cell-based", "details": "1 mM VPA with 10 U/ml LH and 10 U/ml FSH in D-MEM, 5% FBS; feeder-free; at 2 months", "experimental": "Murine VSELs were isolated by multi-parameter sorting using a MOFLOW™ XDP sorter (Beckman Coulter, Inc., Indianapolis, Indiana, United States of America). Highly purified Sca-1^+/lin^−/CD45^− murine bone marrow VSELs were cultured in D-MEM culture medium containing 5% fetal bovine serum (FBS) supplemented with 10 U/ml luteinizing hormone (LH) and 10 U/ml follicle-stimulating hormone (FSH) in a humidified incubator maintained at 37° C. with 5% CO2. VSELs were exposed to the HDAC inhibitor valproic acid (VPA; Sigma Aldrich, St. Louis, Missouri, United States of America) at a concentration of 1 mM. The cultures were supplemented with fresh LH and FSH every third day. The cultures were maintained for approximately two (2) months."}},
  "data": [
    {"smiles": "CCCC(CCC)C(=O)O", "note": "[VPA, valproic acid]", "values": [
      {"measurement": "average expansion of sorted purified human VSELs as compared to day 0", "setting": "[1]", "value": "32±5", "unit": "fold"},
      {"measurement": "average expansion of sorted purified murine VSELs as compared to day 0", "setting": "[2]", "value": "21±3", "unit": "fold"}
    ]}
  ]
}
